These results are taken from patent US10544126B2, “Sulfonyl piperidine derivatives and their use for treating prokineticin mediated diseases” (TAKEDA PHARMACEUTICAL COMPANY LIMITED, priority 2012, dated 2020).

For this assay, the target named is human PKR1 receptors (Homo sapiens (Human), UniProt Q8TCW9). In words: PKR1 antagonist assay: block of PK1-mediated intracellular calcium release (FLIPR). To be noted: antagonist activity; RBL2H3 cells expressing human PKR1; stimulation with PK1 at EC80; calcium fluorescence. The assay is classed as cell-based. How it is done: Prokineticin receptor 1 (PKR1) antagonists may be functionally assessed by measurement of change in intracellular calcium levels induced by Gq mediated increase in inositol triphosphate (IP3) levels. The ability of a compound to block the intracellular release of calcium mediated by PK1 in RBL2H3 cells expressing human PKR1 receptors is determined as a measure of the compound's antagonist activity in vitro.
Approximately 10,000 cells per assay well are seeded in normal culture medium in a 384 well plate (Corning). […]
To test for antagonist activity, test compounds at a final concentration range between 0.32 nM-10 μM (diluted in assay buffer) are added to the assay wells and allowed to incubate for 10 minutes prior to stimulation with PK1. After incubation with test compounds the assay plate is placed in a FLIPR Tetra (Molecular Devices) and PK1 (diluted in assay buffer) is added at the determined EC80 concentration (final). Ligand-dependent changes in intracellular calcium levels are determined by measuring changes in fluorescence of the dye at […] following excitation at 485 nm.
A general note: A change in cytosolic calcium serves as a functional read-out for many receptors and channels.

For orientation: IC50 means the concentration at which inhibition is half-maximal.

Sequence of human PKR1 receptors (Q8TCW9 whole entry): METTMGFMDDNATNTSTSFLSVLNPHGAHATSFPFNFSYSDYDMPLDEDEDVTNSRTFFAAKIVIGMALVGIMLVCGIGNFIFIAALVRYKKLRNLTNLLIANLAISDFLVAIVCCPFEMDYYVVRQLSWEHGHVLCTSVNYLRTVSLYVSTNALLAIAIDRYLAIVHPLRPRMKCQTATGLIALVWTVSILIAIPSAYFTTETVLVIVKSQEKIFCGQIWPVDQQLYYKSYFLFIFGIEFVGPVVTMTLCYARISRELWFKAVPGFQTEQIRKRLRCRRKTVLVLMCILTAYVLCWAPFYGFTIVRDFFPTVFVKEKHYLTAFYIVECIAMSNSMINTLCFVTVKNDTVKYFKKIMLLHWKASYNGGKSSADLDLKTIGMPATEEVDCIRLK

`Cc1n[nH]c(C)c1S(=O)(=O)N1CCC(C(C#N)c2ccc(Cl)cc2F)CC1` (stereo not shown) [Example 92, 2-(4-Chloro-2-fluorophenyl)-2-(1-((3,5-dimethyl-1H-pyrazol-4-yl)sulfonyl)piperidin-4-yl)acetonitrile]: the IC50 worked out at 1850 nM.
